Measured values from patent publication US20110105397A1, “METHOD FOR TREATING HEART FAILURE WITH STRESSCOPIN-LIKE PEPTIDES” (priority 2009, published 2011).
Like-named read-outs stand apart in the source and are kept apart here.

Legend:
healthy subjects = assay: Human hemodynamics (impedance cardiography), healthy subjects, 7.5-hour ascending dose IV infusion; format: in vivo; conditions: for Heart Rate Change from Baseline / Heart Rate Percent Change from Baseline: post hoc analysis
Protocol: Efficacy was based on the pharmacodynamic evaluation of hemodynamics, which was monitored using the noninvasive technique of impedance cardiography. Heart rate values were collected by impedance cardiography measurements. It was noted that the heart rate of subjects receiving placebo were elevated on the day of their infusions, at baseline before the infusion, and for the first 3 to 4 hours after the infusions were started (FIG. 17). Based on this observation, it appeared that there was a potential effect of period on the observed heart rate.
A mixed-effect model with baseline as covariate, period and dose group (≦3 ng/kg/min−low, >3 to ≦36 ng/kg/min−mid, >36 ng/kg/min−high) as fixed effects, and a random subject effect was established using the heart rate change from baseline in healthy subjects.
To confirm that the statistically significant increase in heart rate is caused by the high dose group, a similar mixed-effect model that excluded the high dose level (>36 ng/kg/min) group was built up.
A post hoc graphical analysis of the hemodynamic data was done to adjust for the elevated baseline values seen just before onset of the infusion, to obtain the best estimate of each hemodynamic parameter, and to correct for the effect of period. A post hoc graphic presentation was prepared from the complete (high frequency) dataset. This dataset contains the raw data that were further processed by the vendor (ie, CardioDynamics) and reported only at specific time points.
In this post hoc analysis an extended baseline was used for each value that included all values recorded before initiation of the infusion. Then an average value for each parameter was obtained from the last 30 minutes of each 2.5 hour infusion and was used as the effect in that period of the infused dose. Each value was modified for the effect of period of infusion by subtracting the mean change from baseline seen in placebo subjects dosed in that same period (placebo subtraction). The dose effect was estimated by averaging the values from all subjects who received the same dose after the placebo subtraction.

[1] = test system: dogs with advanced heart failure; assay: LV pressure-volume relationship in dogs with advanced heart failure, 120-min infusion; format: in vivo, dog; conditions: HF dogs
Protocol: In a subsequent study baseline hemodynamic, ventriculographic, echocardiographic and LV pressure-volume was measured, before each dog was intravenously administered a continuous, 4.3 ng/kg/min infusion of h-SCP (SEQ ID NO:1) for 120 min. At the end of the 120-min infusion, complete hemodynamic, ventriculographic, echocardiographic, and LV pressure-volume measurements were repeated. Lead II on the electrocardiogram was monitored throughout the study for development of de novo ventricular arrhythmias. The dosing solutions were not adjusted or corrected for peptide content since the peptide content of the test article used in these studies fell between the customary 85-90% limit where this correction is not required. […]
All hemodynamic measurements were made during left and right heart catheterizations in anaesthelized dogs at each specified study time point. Aortic and LV pressures were measured using cathetenip micromanometers (Millar Instruments, Houston, Tex.), and LV end-diastolic pressure (LVEDP) was measured from the LV pressure waveform. […] Ventriculography were recorded on digital media at 30 frames per second during a power injection of 15 mL of contrast material (Conray; Mallinckrodt Inc., St. Louis, Mo.). […] The end-systolic and end-diastolic pressure-volume points were determined for beats at end-expiration in the usual fashion. […]

[2] = Human pharmacokinetics, healthy subjects, 7.5-hour continuous ascending dose IV infusion; format: in vivo; conditions: for half-life / clearance / Cmax / Tmax / AUC(0-inf): human, in vivo
Protocol: In healthy subjects following a 7.5-hour continuous ascending dose IV infusion of h-SCP (SEQ ID NO:1) noncompartmental pharmacokinetic analyses were performed to determine plasma concentrations of h-SCP (SEQ ID NO:1). Plasma h-SCP (SEQ ID NO:1) reached the steady state shortly after initiating the IV infusion (FIG. 16A). […] Within 30 minutes, plasma h-SCP (SEQ ID NO:1) was reduced to ≦20% of the h-SCP (SEQ ID NO:1) level at the end of infusion. […] However, the additional compartment's contribution to the overall exposure and accumulation of h-SCP (SEQ ID NO:1) is likely marginal as indicated by the effective half-lives.

[3] = healthy subjects, infusion rate 9/18/36 ng/kg/min, mean, N = 5
[4] = healthy subjects, infusion rate 18/54/72 ng/kg/min, mean, N = 3
[5] = healthy subjects, infusion rate 36/72/144 ng/kg/min, N = 1
[6] = healthy subjects, infusion rate 54/72/108 ng/kg/min, mean, N = 2

For “H-TKFTLSLDVPTNIMNLLFNIAKAKNLRAQAAANAHLMAQI-NH2 [SEQ ID NO: 1, TKFTLSLDVPTNIMNLLFNIAKAKNLRAQAAANAHLMAQI-NH2]”, the “cardiac output or cardiac index” value (healthy subjects; all doses ≦36 ng/kg/min) was “no change in cardiac output or cardiac index”, the “heart rate compared with baseline” value (healthy subjects; doses less than 36 ng/kg/min) was “no notable increase in heart rate compared with baseline” and the “increase in heart rate from baseline” value (healthy subjects; doses of 72 ng/kg/min and higher, end of 2.5-hour infusion period) was about 30 bpm. The “Heart Rate Change from Baseline” value (healthy subjects; infusion rate 0.1 ng/kg/min) was −2.8 bpm, the “Heart Rate Percent Change from Baseline” value (healthy subjects; infusion rate 0.1 ng/kg/min) was −4.6% and the “Heart Rate Change from Baseline” value (healthy subjects; infusion rate 0.3 ng/kg/min) was −0.4 bpm. For the same substance, the “Heart Rate Percent Change from Baseline” value (healthy subjects; infusion rate 0.3 ng/kg/min) was −0.2%, the “Heart Rate Change from Baseline” value (healthy subjects; infusion rate 1 ng/kg/min) was −2.0 bpm and the “Heart Rate Percent Change from Baseline” value (healthy subjects; infusion rate 1 ng/kg/min) was −3.3%. The “Heart Rate Change from Baseline” value (healthy subjects; infusion rate 3 ng/kg/min) was 1.3 bpm, the “Heart Rate Percent Change from Baseline” value (healthy subjects; infusion rate 3 ng/kg/min) was 2.6% and the “Heart Rate Change from Baseline” value (healthy subjects; infusion rate 9 ng/kg/min) was 0.1 bpm. For the same substance, the “Heart Rate Percent Change from Baseline” value (healthy subjects; infusion rate 9 ng/kg/min) was 0.6%, the “Heart Rate Change from Baseline” value (healthy subjects; infusion rate 18 ng/kg/min) was 2.1 bpm and the “Heart Rate Percent Change from Baseline” value (healthy subjects; infusion rate 18 ng/kg/min) was 3.9%. The “Heart Rate Change from Baseline” value (healthy subjects; infusion rate 36 ng/kg/min) was 5.2 bpm, the “Heart Rate Percent Change from Baseline” value (healthy subjects; infusion rate 36 ng/kg/min) was 9.4% and the “Heart Rate Change from Baseline” value (healthy subjects; infusion rate 54 ng/kg/min) was 12.7 bpm. The “Heart Rate Percent Change from Baseline” value (healthy subjects; infusion rate 54 ng/kg/min) was 20.5%, the “Heart Rate Change from Baseline” value (healthy subjects; infusion rate 72 ng/kg/min) was 18.1 bpm and the “Heart Rate Percent Change from Baseline” value (healthy subjects; infusion rate 72 ng/kg/min) was 30.3%. For the same substance, the “Heart Rate Change from Baseline” value (healthy subjects; infusion rate 108 ng/kg/min) was 20.9 bpm, the “Heart Rate Percent Change from Baseline” value (healthy subjects; infusion rate 108 ng/kg/min) was 31.3% and the “Heart Rate Change from Baseline” value (healthy subjects; infusion rate 144 ng/kg/min) was 21.2 bpm. The “Heart Rate Percent Change from Baseline” value (healthy subjects; infusion rate 144 ng/kg/min) was 34.3%, the “absolute value of EDPVR slope” value ([1]; 4.3 ng/kg/min infusion for 120 min (untreated 0.257)) was 0.128 and the “slope of the ESPVR” value ([1]; 4.3 ng/kg/min infusion for 120 min (untreated 1.38±0.26)) was 2.26±0.46. For the same substance, the “human equivalent dose to achieve Cpss of 620 pg/mL” value ([2]; dose = CL × Cpss / weight, 70 kg) was 4.4 ng/kg/min, the “expected steady-state plasma concentration (Cpss)” value ([2]; human starting dose of 0.1 ng/kg/min, pharmacokinetic-based approach) was 8.6 pg/mL and the half-life ([2]; healthy subjects, across dose groups, read-out: Mean effective half-life) was 1.54 to 14.2 h. The clearance ([2]; healthy subjects, across dose groups, read-out: Mean systemic clearance) was 4.5 to 7 mL/min/kg, the half-life ([2]; healthy subjects, across dose groups, read-out: Mean terminal half-life) was 2.13 to 28.5 h and the Cmax ([2]; healthy subjects, infusion rate 0.1/0.3/1 ng/kg/min, mean, N = 5) was 0.248 ng/mL. For the same substance, the Tmax ([2]; healthy subjects, infusion rate 0.1/0.3/1 ng/kg/min, median, N = 5) was 7.47 h, the AUC(0-inf) ([2]; healthy subjects, infusion rate 1/3/9 ng/kg/min, mean, N = 4) was 7.41 ng·h/mL and the clearance ([2]; healthy subjects, infusion rate 1/3/9 ng/kg/min, mean, N = 4, read-out: CL (converted)) was 4.67 mL/min/kg. The Tmax ([2]; healthy subjects, infusion rate 1/3/9 ng/kg/min, median, N = 5) was 7 h, the AUC(0-inf) [2, 3] was 28.9 ng·h/mL and the Cmax [2, 3] was 7.26 ng/mL. It also gave a clearance ([2]; healthy subjects, infusion rate 9/18/36 ng/kg/min, mean, N = 5, read-out: CL (converted)) of 5.5 mL/min/kg, a Tmax ([2]; healthy subjects, infusion rate 9/18/36 ng/kg/min, median, N = 5) of 7 h and an AUC(0-inf) ([2]; healthy subjects, infusion rate 18/36/72 ng/kg/min, N = 1) of 68.7 ng·h/mL. For the same substance, the clearance ([2]; healthy subjects, infusion rate 18/36/72 ng/kg/min, N = 1, read-out: CL (converted)) was 4.67 mL/min/kg, the Cmax ([2]; healthy subjects, infusion rate 18/36/72 ng/kg/min, mean, N = 2) was 14.1 ng/mL and the Tmax ([2]; healthy subjects, infusion rate 18/36/72 ng/kg/min, median, N = 2) was 6.46 h. The AUC(0-inf) [2, 4] was 55.9 ng·h/mL, the Cmax [2, 4] was 9.01 ng/mL and the clearance ([2]; healthy subjects, infusion rate 18/54/72 ng/kg/min, mean, N = 3, read-out: CL (converted)) was 6.83 mL/min/kg. For the same substance, the Tmax ([2]; healthy subjects, infusion rate 18/54/72 ng/kg/min, median, N = 3) was 5.5 h, the AUC(0-inf) [2, 5] was 138 ng·h/mL and the Cmax [2, 5] was 29.1 ng/mL. It also gave a Tmax [2, 5] of 7.42 h, a clearance ([2]; healthy subjects, infusion rate 36/72/144 ng/kg/min, N = 1, read-out: CL (converted)) of 4.5 mL/min/kg and an AUC(0-inf) [2, 6] of 95.5 ng·h/mL. The Cmax [2, 6] was 14.6 ng/mL, the clearance ([2]; healthy subjects, infusion rate 54/72/108 ng/kg/min, mean, N = 2, read-out: CL (converted)) was 7 mL/min/kg and the Tmax ([2]; healthy subjects, infusion rate 54/72/108 ng/kg/min, median, N = 2) was 6.99 h. It also gave a clearance ([2]; iv, healthy humans, intravenous infusion, for a 70-kg person, read-out: clearance (CL) (converted)) of about 500 mL/min.
